# In US20140205631A1, “Stimulation of vaccination by angiotensin peptides” (University of Southern California, priority 2013, published 2014):
# Assays:
# FIV-p24 antigen = experiment: Vaginal secretion SIgA antibody titers (ELISA) after vaccination of cats; type: in vivo, feline immunodeficiency virus (FIV); settings: vaginal, lowest dilution Undilute
# Experimental: (§1) Animals: Eleven (11) female outbred cats>24 weeks old that were free of FIV, feline leukemia virus (FeLV) and feline infectious peritonitis virus were employed. The animals were restrained for the application of test articles to mucous membranes and collection of blood and mucosal secretions. Sedation, if necessary, was induced by subcutaneous administration of ketamine hydrochloride (22 mg/kg) and acepromazine maleate (0.1 mg/kg). Euthanasia was accomplished with a lethal overdose of barbiturates. All activities were approved by the Institutional Animal Care and Use Committee and supervised by veterinary staff.
# (§2) Vaccine Preparation: Fel-O-Vax FIV (Fort Dodge Animal Health, Fort Dodge, Iowa) and A(1-7) was combined in a constant volume of 2% hydroxyethyl cellulose (2% HEC). The range of concentrations of A(1-7) ranged from 0 to 10 mg/mL with a constant 0.33 mL of Fel-O-Vax FIV suspended in each mL of the gel applied for vaccination purposes. Two control animals received intramuscular Fel-O-Vax FIV at baseline, week 3 and week 5. One control animal had mucosal vaccination with Fel-O-Vax alone suspended in the 2% HEC without A(1-7) and one control animal received intramuscular Fel-O-Vax FIV with 0.3 mg/kg of A(1-7) at baseline, week 3 and week 5.
# (§3) Delivery of angiotensin(1-7) and FIV vaccine to mucosal surfaces: 2% HEC, a viscous gel, was used as the vehicle for the topical delivery of angiotensin(1-7) and FIV vaccine. The topical vaccine was applied to the mucosal surface weekly for 6 consecutive weeks. 1.0 mL was applied to the muzzle for oral mucosal vaccination and 1.0 mL and 0.2 mL was instilled in the rectal and vaginal vaults, respectively for mucosal vaccination at these sites.
# (§4) Measurement of Local Immune Response: The Weck-Cel Surgical Spear (Windsor Biomedical, Newton, N.H.) was used to obtain secretions. Once inserted, the sponge is allowed to remain in place for 5 minutes. The secretions were extracted by centrifugation with 300 μL of a buffer solution. The buffer solution is prepared by mixing 50 μL of 100× protease inhibitor cocktail and 250 μL of 10% Igepal (Sigma, St Louis, Mo., U.S.A.) with 4.7 ml of phosphate-buffered saline (PBS) containing 0.25% bovine serum albumin (BSA, Fraction V; Sigma). The 100× protease inhibitor cocktail contains 100 μg/mL aprotinin, 500 μg/mL leupeptin, 100 μg/mL bestatin (all Sigma), and 50 μg/mL 4-(2-Aminoethyl)-benzenesulfonyl fluoride hydrochloride (Roche Applied Sciences, U.S.A.) in phosphate buffered saline.
# (§5) The local immune response in mucosal secretions was evaluated against the homologous FIV-p24 antigen (Cell Biolabs, Inc, San Diego, Calif.) or the heterologous HIV-gp120 antigen (ImmunoDiagnostics, Inc, Woburn, Mass.). Plates were prepared with 50 ng/mL FIV-p24 antigen or with 500 ng/mL HIV-gp120 antigen (Bachem Americans, Inc, Torrance, Calif.) incubated over night at 4° C., washed and the target sample added and incubated overnight again at 4° C. The plates were washed and the indicator goat anti-feline IgG (Accurate Chemical & Scientific Corp., Westbury, N.Y., working titer 1:10,000) or goat anti-feline IgA (Accurate Chemical & Scientific Corp., Westbury, N.Y., working titer 1:1,000) added and incubated for 24 hours at 4° C. Following a final wash, substrate solution was added. The stop solution was added after 15 minutes for the IgG reaction and after 30 minutes for the IgA reaction. Plates were read at 450 nm.
# HIV-gp120 antigen [1] = experiment: as above; type: in vivo, human immunodeficiency virus (HIV); settings: for SIgA Anti-HIV gp120: vaginal, Week 8, lowest dilution 1:4, elution factor 300-fold
# Experimental: as §1, §2, §3
# Measurement of Local Immune Response: The Weck-Cel Surgical Spear (Windsor Biomedical, Newton, N.H.) was used to obtain secretions. […]
# (§6) The local immune response in mucosal secretions was evaluated against the homologous FIV-p24 antigen (Cell Biolabs, Inc, San Diego, Calif.) or the heterologous HIV-gp120 antigen (ImmunoDiagnostics, Inc, Woburn, Mass.). […] Plates were read at 450 nm.
# HIV-gp120 antigen [2] = experiment: Vaginal secretion IgG antibody titers (ELISA) after vaccination of cats; type: in vivo, human immunodeficiency virus (HIV); settings: for IgG Anti-HIV gp120: vaginal, Week 8, lowest dilution 1:4, elution factor 300-fold
# Experimental: as §1, §2, §3, §4, §5
# [3] = test system: mucosal SIgA antibody production; experiment: Local (mucosal) secretory IgA immune response after vaccination of cats, general statements; type: in vivo
# Experimental: as §1
# as §2, with “One control animal had mucosal vaccination with Fel-O-Vax alone suspended in the 2% HEC without A(1-7) and one control animal received intramuscular Fel-O-Vax FIV with 0.3 mg/kg of A(1-7) at baseline, week 3 and week 5.” left out
# as §6
# [4] = topical Fel-O-Vax FIV + 0.1 A(1-7) in 2% HEC
# [5] = topical Fel-O-Vax FIV + 5.0 A(1-7) in 2% HEC
substance,measurement,setting,value
Asp-Arg-Val-Tyr-Ile-His-Pro (DRVYIHP) [A(1-7)],SIgA Anti-FIV-p24,"FIV-p24 antigen; IM Fel-O-Vax FIV + 0.3 mg/kg A(1-7), Week 4",Undilute
same,SIgA Anti-FIV-p24,"FIV-p24 antigen; IM Fel-O-Vax FIV + 0.3 mg/kg A(1-7), Week 6",Undilute
same,SIgA Anti-FIV-p24,"FIV-p24 antigen; topical Fel-O-Vax FIV + 0.1 A(1-7) in 2% HEC, Week 2",Undilute
same,SIgA Anti-FIV-p24,"FIV-p24 antigen; topical Fel-O-Vax FIV + 0.1 A(1-7) in 2% HEC, Week 4",Undilute
same,SIgA Anti-FIV-p24,"FIV-p24 antigen; topical Fel-O-Vax FIV + 0.2 A(1-7) in 2% HEC, Week 2",Undilute
same,SIgA Anti-FIV-p24,"FIV-p24 antigen; topical Fel-O-Vax FIV + 0.2 A(1-7) in 2% HEC, Week 8",Undilute
same,SIgA Anti-FIV-p24,"FIV-p24 antigen; topical Fel-O-Vax FIV + 0.3 A(1-7) in 2% HEC, Week 6",Undilute
same,SIgA Anti-FIV-p24,"FIV-p24 antigen; topical Fel-O-Vax FIV + 0.3 A(1-7) in 2% HEC, Week 8",Negative
same,SIgA Anti-FIV-p24,"FIV-p24 antigen; topical Fel-O-Vax FIV + 5.0 A(1-7) in 2% HEC, Week 2",Negative
same,SIgA Anti-FIV-p24,"FIV-p24 antigen; topical Fel-O-Vax FIV + 5.0 A(1-7) in 2% HEC, Week 4",Negative
same,SIgA Anti-FIV-p24,"FIV-p24 antigen; topical Fel-O-Vax FIV + 5.0 A(1-7) in 2% HEC, Week 6",Negative
same,SIgA Anti-FIV-p24,"FIV-p24 antigen; topical Fel-O-Vax FIV + 5.0 A(1-7) in 2% HEC, Week 8",Negative
same,SIgA Anti-FIV-p24,"FIV-p24 antigen; topical Fel-O-Vax FIV + 7.5 A(1-7) in 2% HEC, Week 2",Negative
same,SIgA Anti-FIV-p24,"FIV-p24 antigen; topical Fel-O-Vax FIV + 7.5 A(1-7) in 2% HEC, Week 4",Negative
same,SIgA Anti-FIV-p24,"FIV-p24 antigen; topical Fel-O-Vax FIV + 7.5 A(1-7) in 2% HEC, Week 6",Negative
same,SIgA Anti-FIV-p24,"FIV-p24 antigen; topical Fel-O-Vax FIV + 7.5 A(1-7) in 2% HEC, Week 8",Negative
same,SIgA Anti-FIV-p24,"FIV-p24 antigen; topical Fel-O-Vax FIV + 10.0 A(1-7) in 2% HEC, Week 2",Negative
same,SIgA Anti-FIV-p24,"FIV-p24 antigen; topical Fel-O-Vax FIV + 10.0 A(1-7) in 2% HEC, Week 6",Negative
same,SIgA Anti-FIV-p24,"FIV-p24 antigen; topical Fel-O-Vax FIV + 10.0 A(1-7) in 2% HEC, Week 8",Negative
same,SIgA-anti-HIV-gp120 antibodies in vaginal secretions,HIV-gp120 antigen [1]; Topical application of FIV antigen with A(1-7),substantial
same,SIgA Anti-HIV gp120,HIV-gp120 antigen [1]; [4],Negative
same,SIgA Anti-HIV gp120,HIV-gp120 antigen [1]; [5],Negative
same,IgG antibody induction in vaginal secretions,"HIV-gp120 antigen [2]; topical, higher dose levels of A(1-7)",declined
same,IgG anti-HIV-gp120 antibodies in vaginal secretions,"HIV-gp120 antigen [2]; topical, lower dose levels of A(1-7)",also elicited
same,IgG Anti-HIV gp120,HIV-gp120 antigen [2]; [4],Negative
same,IgG Anti-HIV gp120,HIV-gp120 antigen [2]; [5],Negative
same,IgG Anti-HIV gp120,HIV-gp120 antigen [2]; topical Fel-O-Vax FIV + 7.5 A(1-7) in 2% HEC,Negative
same,IgG Anti-HIV gp120,HIV-gp120 antigen [2]; topical Fel-O-Vax FIV + 10.0 A(1-7) in 2% HEC,Negative
same,local secretory IgA immune responses,[3]; angiotensin (1-7) co-administered with killed FIV (Fel-O-Vax FIV) vaccine,dramatic increase
same,induction of SIgA antibody production at the mucosal surface,"[3]; following A(1-7)+FIV immunization, two month period of observation",sustained
